Our source for the IC50 values is patent US20170166555A1, “FUNCTIONALISED AND SUBSTITUTED INDOLES AS ANTI-CANCER AGENTS” (Novogen Limited, priority 2013, published 2017).

Test in all cases: Anti-proliferative assay, cell-titre luminescent reagent, 72 h (GVK-BIO)
Assay type in all cases: cell-based

Assay [1] relates to SK-N-SH neuroblastoma cells. As to conditions: Homo sapiens, SK-N-SH, 30, 3, 0.3 and 0.03 μM, linear regression (Tables 2-4). As for the experimental part:
(§1) The ability of compounds 4001, 4002, 4008, 4010, 4011, 4013-4015, 4018, 4026, 4045-4113 and 4115-4127 to inhibit the proliferation of cancer cells representative of neuroblastoma, melanoma, prostate cancer, colorectal cancer, non-small cell lung carcinoma, and triple negative breast cancer was assessed. These studies were conducted by contract research (GVK-BIO). Briefly, a pre-determined number of cells as calculated from cell growth assays for each of the cell lines employed were seeded into their respective culture medium (using ATCC culture parameters—http://www.atcc.org) and cultured for 24 h at 37° C. and 5% CO2 in 96-well culture plates. Once attached, each cell line was then exposed to various concentrations of each respective analogue (30, 3, 0.3 and 0.03 μM for compounds in Tables 2, 3 and 4; 30, 10, 3, 1, 0.3 and 0.1 μM for compounds in Table 5), cultured for a further 72 h and exposed to cell-titre luminescent reagent (100 μL/well) for a further 30 min). Luminescence was captured using an EnVision multilabel reader and the data for each analogue concentration compared against no treatment control. For compounds in Tables 2-4, semi-log plots of Percent of Control versus concentration were prepared and IC50 determined using linear regression analysis. For compounds in Table 5, cell viability was normalized to control (vehicle alone) and dose-response curves, and half maximal effective concentration (EC50) values were determined using Graph Pad Prism 6 (nonlinear regression sigmoidal dose-response variable slope).

In another assay the test system is SK-Mel-28 melanoma cells. As to conditions: Homo sapiens, SK-MEL-28, 72 h, 30, 3, 0.3 and 0.03 μM, linear regression (Tables 2-4). The protocol: as §1
Assay [2] concerns PC3 prostate cancer cells. As to conditions: 30, 3, 0.3 and 0.03 μM, linear regression (Tables 2-4). The protocol:
as §1

Assay [3] deals with A549 non-small cell lung carcinoma cells. As to conditions: Homo sapiens, A549, 72 h, 30, 3, 0.3 and 0.03 μM, linear regression (Tables 2-4), read-out: IC50/μM Lung (NSLC) A549. The protocol:
as §1

The subject of assay [4] is MDA-MB-231 triple negative breast cancer cells. The note with it: Homo sapiens, MDA-MB-231, 72 h, 30, 3, 0.3 and 0.03 μM, linear regression (Tables 2-4). As for the experimental part:
as §1

For assay [5], the system named is CaCo2 colorectal cancer cells. The note with it: Homo sapiens, Caco-2, 72 h, 30, 3, 0.3 and 0.03 μM, linear regression (Tables 2-4). The protocol: as §1
Assay [6] concerns DU145 prostate cancer cells. The note with it: Homo sapiens, DU-145, 72 h, 30, 3, 0.3 and 0.03 μM, linear regression (Tables 2-4). As for the experimental part:
as §1

As for `Cc1c(C)n(CCCN(C)C)c2ccc(C(=O)N3CCN(CCc4ccccc4)CC3)cc12` [Compound 4018, (1-(3-(dimethylamino)propyl)-2,3-dimethyl-1H-indol-5-yl)(4-phenethylpiperazin-1-yl)methanone], the IC50 in assay [1] was over 30 µM; with SK-Mel-28 melanoma cells, 67.3 µM; in assay [2], over 30 µM; in assay [3] it was over 30 µM; in assay [4], over 30 µM; in assay [5], over 30 µM. Besides, the IC50 in assay [6] is over 30 µM.
Take `CN(C)CCCn1ccc2cc(Nc3ccc(C(=O)Nc4ccccc4)cc3)ccc21` [Compound 4026, 4-((1-(3-(dimethylamino)propyl)-1H-indol-5-yl)amino)-N-phenylbenzamide]: the IC50 is 3.7 µM in assay [1]; 5.9 µM in the assay with SK-Mel-28 melanoma cells; 6.1 µM in assay [2]; 3.8 µM in assay [3]; 3.5 µM in assay [4]; 15.4 µM in assay [5]. In addition, in assay [6], the IC50 was determined as 5 µM.
Take `CN(C)CCCn1ccc2cc(Cc3cccc(C(=O)Nc4ccc(F)cc4)c3)ccc21` [Compound 4045, 3-((1-(3-(dimethylamino)propyl)-1H-indol-5-yl)methyl)-N-(4-fluorophenyl)benzamide]: the IC50 worked out at 3.8 µM in assay [1]; 3.7 µM in the assay with SK-Mel-28 melanoma cells; 5.7 µM in assay [2]; 3.7 µM in assay [3]; 2.6 µM in assay [4]; 5.2 µM in assay [5]. This compound showed an IC50 in assay [6] of 5.5 µM.
For `COc1ccc(NC(=O)c2cccc(Cc3ccc4c(ccn4CCCN(C)C)c3)c2)cc1` [Compound 4046, 3-((1-(3-(dimethylamino)propyl)-1H-indol-5-yl)methyl)-N-(4-methoxyphenyl)benzamide], the IC50 in assay [1] stood at 3.2 µM; in the assay with SK-Mel-28 melanoma cells, 1.9 µM; in assay [2], 1.1 µM; in assay [3], 1.7 µM; in assay [4], 1.9 µM; in assay [5], 3.2 µM. Further, the IC50 in assay [6] came out at 2.6 µM.
For the compound `CN(C)CCCn1ccc2cc(Cc3cccc(C(=O)Nc4ccc5c(c4)OCO5)c3)ccc21` [Compound 4047, N-(benzo[d][1,3]dioxol-5-yl)-3-((1-(3-(dimethylamino)propyl)-1H-indol-5-yl)methyl)benzamide], the IC50 in assay [1] is 3.1 µM; in the assay on SK-Mel-28 melanoma cells, 2.5 µM; in assay [2], 3.1 µM; in assay [3], 3 µM; in assay [4], 3 µM; in assay [5], 3 µM. The compound further returned an IC50 in assay [6] of 3.4 µM.
Consider `CN(C)CCCn1ccc2cc(Cc3cccc(C(=O)Nc4cccc(F)c4)c3)ccc21` [Compound 4048, 3-((1-(3-(dimethylamino)propyl)-1H-indol-5-yl)methyl)-N-(3-fluorophenyl)benzamide], for which the IC50 is 3.9 µM in assay [1]; 3.1 µM with SK-Mel-28 melanoma cells; 3.8 µM in assay [2]; 3 µM in assay [3]; 3.2 µM in assay [4]; 6.9 µM in assay [5]. Moreover, the IC50 in assay [6] was 3.3 µM.
Regarding `COc1cccc(NC(=O)c2cccc(Cc3ccc4c(ccn4CCCN(C)C)c3)c2)c1` [Compound 4049, 3-((1-(3-(dimethylamino)propyl)-1H-indol-5-yl)methyl)-N-(3-methoxyphenyl)benzamide], the IC50 in assay [1] came out at 3.3 µM; in the assay with SK-Mel-28 melanoma cells, 3.1 µM; in assay [2] it was 3.4 µM; in assay [3], 3 µM; in assay [4] it was 3.4 µM; in assay [5], 3.2 µM. For the same compound, the IC50 in assay [6] stood at 3.3 µM.
For the compound `Cc1c(C)n(CCCN(C)C)c2ccc(Cc3cccc(C(=O)Nc4ccc(F)cc4)c3)cc12` [Compound 4050], the IC50 in assay [1] worked out at 4 µM; in the assay on SK-Mel-28 melanoma cells it was 2.6 µM; in assay [2], 4.2 µM; in assay [3] it was 3.1 µM; in assay [4], 3.7 µM; in assay [5], 4.2 µM. Besides, the IC50 in assay [6] amounted to 4.3 µM.
For the compound `COc1ccc(NC(=O)c2cccc(Cc3ccc4c(c3)c(C)c(C)n4CCCN(C)C)c2)cc1` [Compound 4051], the IC50 was determined as 4.3 µM in assay [1]; 3.4 µM in the assay on SK-Mel-28 melanoma cells; 17.3 µM in assay [2]; 4.1 µM in assay [3]; 4.5 µM in assay [4]; 16.1 µM in assay [5]. Moreover, in assay [6], the IC50 was 4.9 µM.
For `Cc1c(C)n(CCCN(C)C)c2ccc(Cc3cccc(C(=O)Nc4ccc5c(c4)OCO5)c3)cc12` [Compound 4052, N-(benzo[d][1,3]dioxol-5-yl)-3-((1-(3-(dimethylamino)propyl)-2,3-dimethyl-1H-indol-5-yl)methyl)benzamide], the IC50 was determined as 31.9 µM in assay [1]; 6.2 µM in the assay on SK-Mel-28 melanoma cells; 11.1 µM in assay [2]; 8 µM in assay [3]; 30 µM in assay [4]; 27.1 µM in assay [5]. For the same compound, the IC50 in assay [6] was found to be 13.8 µM.
Regarding `Cc1c(C)n(CCCN(C)C)c2ccc(Cc3cccc(C(=O)Nc4cccc(F)c4)c3)cc12` [Compound 4053], the IC50 in assay [1] amounted to 3.8 µM; in the assay with SK-Mel-28 melanoma cells it was 2.5 µM; in assay [2] it was 3.7 µM; in assay [3] it was 2 µM; in assay [4], 2.5 µM; in assay [5], 4.6 µM. In assay [6], this compound came in with an IC50 of 4.3 µM.
As to `COc1cccc(NC(=O)c2cccc(Cc3ccc4c(c3)c(C)c(C)n4CCCN(C)C)c2)c1` [Compound 4054], the IC50 in assay [1] was determined as 4.5 µM; with SK-Mel-28 melanoma cells, 4.1 µM; in assay [2] it was 3.9 µM; in assay [3], 3.9 µM; in assay [4], 4.6 µM; in assay [5], 5.1 µM. This compound yielded an IC50 in assay [6] of 4.5 µM.
For `Cc1c(C)n(CCCN(C)C)c2ccc(Cc3cccc(C(=O)Nc4ccccc4)c3)cc12` [Compound 4055], the IC50 worked out at 4.6 µM in assay [1]; 5.1 µM with SK-Mel-28 melanoma cells; 7.9 µM in assay [2]; 4.7 µM in assay [3]; 4.7 µM in assay [4]; 6.8 µM in assay [5]. The compound also gave an IC50 in assay [6] of 4.5 µM.
With `CN(C)CCCn1ccc2cc(Oc3cccc(C(=O)Nc4ccc(F)cc4)c3)ccc21` [Compound 4056, 3-((1-(3-(dimethylamino)propyl)-1H-indol-5-yl)oxy)-N-(4-fluorophenyl)benzamide], the IC50 in assay [1] was determined as 3.4 µM; with SK-Mel-28 melanoma cells, 3.4 µM; in assay [2], 7 µM; in assay [3], 4 µM; in assay [4] it was 3 µM; in assay [5], 4.7 µM. Further, in assay [6], the IC50 came to 4.3 µM.
For `COc1ccc(NC(=O)c2cccc(Oc3ccc4c(ccn4CCCN(C)C)c3)c2)cc1` [Compound 4057, 3-((1-(3-(dimethylamino)propyl)-1H-indol-5-yl)oxy)-N-(4-methoxyphenyl)benzamide], the IC50 in assay [1] is 4.9 µM; in the assay with SK-Mel-28 melanoma cells, 2.7 µM; in assay [2], 8.7 µM; in assay [3], 4.4 µM; in assay [4] it was 3 µM; in assay [5] it was 10.3 µM. For the same compound, the IC50 in assay [6] turned out to be 6.4 µM.
In the case of `CN(C)CCCn1ccc2cc(Oc3cccc(C(=O)Nc4ccc5c(c4)OCO5)c3)ccc21` [Compound 4058, N-(benzo[d][1,3]dioxol-5-yl)-3-((1-(3-(dimethylamino)propyl)-1H-indol-5-yl)oxy)benzamide], the IC50 in assay [1] came to 3.4 µM; in the assay on SK-Mel-28 melanoma cells, 2.7 µM; in assay [2], 7.2 µM; in assay [3], 4.7 µM; in assay [4], 3.8 µM; in assay [5], 9.7 µM. The compound also yielded an IC50 in assay [6] of 4.7 µM.
Regarding `CN(C)CCCn1ccc2cc(Oc3cccc(C(=O)Nc4cccc(F)c4)c3)ccc21` [Compound 4059, 3-((1-(3-(dimethylamino)propyl)-1H-indol-5-yl)oxy)-N-(3-fluorophenyl)benzamide], the IC50 in assay [1] was 11.3 µM; in the assay with SK-Mel-28 melanoma cells, 15.5 µM; in assay [2], over 30 µM; in assay [3] it was 13.4 µM; in assay [4], 13.2 µM; in assay [5], over 30 µM. This compound also had an IC50 in assay [6] of over 30 µM.
Consider `COc1cccc(NC(=O)c2cccc(Oc3ccc4c(ccn4CCCN(C)C)c3)c2)c1` [Compound 4060], for which the IC50 in assay [1] came out at 3.6 µM; with SK-Mel-28 melanoma cells, 2.8 µM; in assay [2] it was 5 µM; in assay [3], 4.2 µM; in assay [4] it was 2.8 µM; in assay [5], 4 µM. Besides, the IC50 in assay [6] amounted to 4 µM.
